The text below walks through data of ChEMBL document CHEMBL4765241, “Identification and Preclinical Pharmacology of ((1 R,3 S)-1-Amino-3-(( S)-6-(2-methoxyphenethyl)-5,6,7,8-tetrahydronaphthalen-2-yl)cyclopentyl)methanol (BMS-986166): A Differentiated Sphingosine-1-phosphate Receptor 1 (S1P) Modulator Advanced into Clinical Trials” (J Med Chem, 2019).

The nature of data set [1]: Metabolic stability in cynomolgus monkey liver microsomes assessed as half-life. Format: ADME, Macaca fascicularis, Microsome. Background: Microsomes from liver hold many membrane-bound enzymes, among them those of drug oxidation.
The next data set has as its target T1, Cytochrome P450 2B6 (Homo sapiens, UniProt P20813).
T1 sequence (P20813 whole entry): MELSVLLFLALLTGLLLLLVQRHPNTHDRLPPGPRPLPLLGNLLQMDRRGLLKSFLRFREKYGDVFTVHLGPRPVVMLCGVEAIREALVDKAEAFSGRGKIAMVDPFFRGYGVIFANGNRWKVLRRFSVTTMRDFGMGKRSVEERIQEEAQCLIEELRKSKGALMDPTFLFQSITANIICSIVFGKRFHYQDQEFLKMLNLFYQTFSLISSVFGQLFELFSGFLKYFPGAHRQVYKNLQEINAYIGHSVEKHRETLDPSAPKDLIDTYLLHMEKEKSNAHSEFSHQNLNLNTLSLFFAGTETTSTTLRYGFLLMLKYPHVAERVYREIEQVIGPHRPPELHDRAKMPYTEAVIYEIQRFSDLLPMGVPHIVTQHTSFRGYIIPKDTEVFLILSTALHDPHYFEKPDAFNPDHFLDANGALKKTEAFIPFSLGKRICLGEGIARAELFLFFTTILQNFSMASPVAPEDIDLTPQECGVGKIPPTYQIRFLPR
The experiment in a line: Inhibition of CYP2B6 (unknown origin). Format: ADME.

A short description of data set [2]: Volume of distribution at steady state in Beagle dog at 0.3 mg/kg, po or 1 mg/kg, iv. It counts as ADME, organism-based, Canis lupus familiaris. The note with it: in vivo, read-out: Vdss.
Data set [3] can be described thus: Genotoxicity in bacteria by Ames test. It counts as toxicity. (In general: The Ames test uses bacterial strains that need an amino acid and regain growth without it when mutated back.)
The next data set addresses T2, Cytochrome P450 2C8 (Homo sapiens, UniProt P10632).
T2 sequence (P10632 whole entry): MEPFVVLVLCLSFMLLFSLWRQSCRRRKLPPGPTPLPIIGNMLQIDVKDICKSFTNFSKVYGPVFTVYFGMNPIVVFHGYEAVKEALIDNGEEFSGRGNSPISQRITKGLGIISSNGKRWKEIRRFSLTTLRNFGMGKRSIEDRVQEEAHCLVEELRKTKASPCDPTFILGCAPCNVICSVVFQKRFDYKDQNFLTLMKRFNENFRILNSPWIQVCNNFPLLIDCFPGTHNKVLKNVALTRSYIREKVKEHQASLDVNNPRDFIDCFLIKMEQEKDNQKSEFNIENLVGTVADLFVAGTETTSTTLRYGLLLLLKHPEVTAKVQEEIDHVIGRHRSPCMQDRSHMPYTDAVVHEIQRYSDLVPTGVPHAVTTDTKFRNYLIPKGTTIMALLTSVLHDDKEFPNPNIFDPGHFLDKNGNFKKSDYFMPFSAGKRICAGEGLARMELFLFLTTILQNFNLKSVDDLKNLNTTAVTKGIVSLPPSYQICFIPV
The experiment in a line: Inhibition of CYP2C8 (unknown origin). Format: ADME.

Data set [4] can be described thus: Half-life in Lewis rat at 2 mg/kg, po measured over 72 hrs by LC-MS/MS analysis. Format: ADME, organism-based. The note with it: in vivo.
A short description of data set [5]: Dissociation constant, pKa of compound. Format: physicochemical.
A short description of data set [6]: Volume of distribution at steady state in Sprague-Dawley rat at 1 mg/kg, po or 1 mg/kg, iv. It counts as ADME, organism-based. The settings on record: in vivo, read-out: Vdss.
The nature of data set [7]: Oral bioavailability in beagle dog at 0.3 mg/kg. Format: ADME, organism-based, Canis lupus familiaris. The settings on record: in vivo.
For data set [8], the system named is Rattus norvegicus. The experiment in a line: Reduction in circulating lymphocytes in Lewis rat blood at 2 mg/kg, po measured at 4 hrs by hematology analyzer based analysis. Format: functional. Also noted: scale not given: the % may be the effect or the level left.
Data set [9] can be described thus: Volume of distribution at steady state in cynomolgus monkey at 1 mg/kg, po or 1 mg/kg, iv. It counts as ADME, organism-based, Macaca fascicularis. The settings on record: in vivo, read-out: Vdss.
A short description of data set [10]: Clearance in Beagle dog at 1 mg/kg, iv. Format: ADME, organism-based, Canis lupus familiaris. The note with it: in vivo.
Data set [11] in a line: Protein binding in cynomolgus monkey assessed as bound fraction. The settings on record: read-out: PB. Format: ADME, Macaca fascicularis.
A short description of data set [12]: Metabolic stability in human liver microsomes assessed as half-life measured upto 120 mins in presence of NADPH-generating system by LC/MS/MS analysis. Format: ADME, Microsome.
Data set [13] can be described thus: Protein binding in dog assessed as bound fraction. It counts as ADME, Canis lupus familiaris. The settings on record: read-out: PB.
Data set [14] deals with Rattus norvegicus. As to the kind of experiment: Reduction in circulating lymphocytes in Lewis rat blood at 2 mg/kg, po measured at 24 hrs by hematology analyzer based analysis. Format: functional. On the set-up: scale not given: the % may be the effect or the level left.
Data set [15] is described as follows: Protein binding in mouse assessed as bound fraction. Format: ADME. The note with it: read-out: PB.
Data set [16] is described as follows: Drug metabolism in Lewis rat blood assessed as concentration of parent compound at 2 mg/kg, po measured at 4 hrs by LC-MS/MS analysis. Format: ADME, organism-based. The settings on record: read-out: Ct.
The target in the next data set is Cytochrome P450 3A4 (Homo sapiens, UniProt P08684). As to the kind of experiment: Inhibition of CYP3A4 (unknown origin). It counts as ADME.
Data set [17] in a line: Terminal half-life in Sprague-Dawley rat at 1 mg/kg, iv. Format: ADME, organism-based. The settings on record: in vivo, read-out: beta t1/2 (converted).

Cytochrome P450 3A4, sequence (P08684 whole entry): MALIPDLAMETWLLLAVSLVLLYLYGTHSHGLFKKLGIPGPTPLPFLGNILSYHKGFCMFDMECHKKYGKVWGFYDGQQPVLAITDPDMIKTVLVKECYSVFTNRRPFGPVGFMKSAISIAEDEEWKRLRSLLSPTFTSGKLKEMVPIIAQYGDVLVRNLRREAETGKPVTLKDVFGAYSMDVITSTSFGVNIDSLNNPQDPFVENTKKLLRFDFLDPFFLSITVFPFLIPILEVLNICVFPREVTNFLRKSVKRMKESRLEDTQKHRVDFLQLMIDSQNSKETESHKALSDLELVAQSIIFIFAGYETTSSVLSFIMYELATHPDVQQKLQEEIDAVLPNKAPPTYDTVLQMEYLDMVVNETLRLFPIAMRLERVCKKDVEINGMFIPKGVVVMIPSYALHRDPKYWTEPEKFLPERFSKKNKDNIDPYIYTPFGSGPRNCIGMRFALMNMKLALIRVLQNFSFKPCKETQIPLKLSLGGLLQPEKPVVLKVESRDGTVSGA

Take `COc1ccccc1CC[C@@H]1CCc2cc([C@H]3CC[C@](N)(CO)C3)ccc2C1` [UDIFITIMOD]: the half-life in [1] is 1.83 h; in data set [4], 27 h; in [12], 4.03 h; in data set [17], 38 h. Moreover, the IC50 against Cytochrome P450 2B6 worked out at 17 µM; against Cytochrome P450 2C8 it was 8.6 µM; on Cytochrome P450 3A4, 5.5 µM. The values for the Vd in data set [2], in [6] and in data set [9] were 21 L/kg, 16 L/kg and 10 L/kg, respectively. For the same compound, the values for the Activity result (in [3]; in the data set with Rattus norvegicus [8]; with Rattus norvegicus [14]) were “Non-Toxic”, 76% and 81%, respectively. Further, in [5], the pKa was determined as 9.5. Besides, in data set [7], the bioavailability was 61%. The compound also came in with a clearance in data set [10] of 1.9 mL/min/kg. Besides, the fraction unbound in data set [11], in [13] and in data set [15] was below 0.001 throughout. For the same compound, the concentration at 4 h in [16] came out at 40 nM.

As a reminder, the IC50 is the point on the concentration scale where inhibition reaches its midpoint. What is called pKa is the pH at which an ionisable group is half protonated. By bioavailability is commonly meant dose-corrected exposure relative to a reference, in per cent. As a reminder, the clearance is the volume of plasma or blood freed of the substance per unit of time.
